In patent US11571437B2, “Methods of treating cancer using PRMT5 inhibitors” (Janssen Pharmaceutica NV, priority 2019, dated 2023):

Assays:
PRMT5/MEP50 = PRMT5/MEP50 (Homo sapiens, UniProt O14744); test: surface plasmon resonance binding studies
Text: (§1) This unique mode-of-binding translates into very potent and time-dependent PRMT5 enzyme inhibition.

PRMT5/MEP50 complex = PRMT5/MEP50 complex (Homo sapiens, UniProt O14744); test: in vitro thermal shift experiments; format: binding
Text: as §1

[1] = tested on: NCI-H1048 human xenograft model of SCLC; test: NCI-H1048 human SCLC xenograft, once daily oral dosing up to 28 days (Study 1); format: in vivo, mice
Experimental: JNJ-64619178 was tested for antitumor activity in the NCI-H1048 human xenograft model of SCLC. Male mice were subcutaneously implanted with NCI-H1048 cells, and tumors were allowed to grow for 14 days, reaching 174±51 mm^3 in volume, when treatment was started. Mice were administered once daily oral doses of JNJ-64619178 at 1, 3, and 10 mg/kg or 20% hydroxypropyl-β-cyclodextrin (HP-β-CD) vehicle control for up to 28 days.
FIG. 1 details the individual tumor regrowth observed following cessation of once daily treatment with 10 mg/kg JNJ 64619178 or vehicle control. In all 8 mice treated with 10 mg/kg JNJ 64619178, tumor regrowth began approximately 14 days after cessation of dosing, with tumors reaching ethical limits by Day 92 postimplantation.

[2] = tested on: NCI H1048 human SCLC xenografts; test: second NCI-H1048 human SCLC mouse xenograft study, 10 days dosing and 10 days regrowth observation; format: in vivo, mice; settings: 10 mg/kg oral gavage for 10 days
NCI-H1048 xenografts = test: NCI-H1048 xenograft, continuous versus 7+/7- dosing (Study 3); format: in vivo, mice; settings: 10 mg/kg once daily oral, at day 28
Experimental: FIG. 4 is a line graph showing extended tumor growth inhibition using a dosing cessation of the compound of the disclosure in the NCI-H1048 tumor model at a JNJ64619178 dosage of 10 mg/kg for either 28 consecutive days or for two cycles of 7 daily drug treatment followed by 7 days dosing holidays (7+/7 −, 2 cycles).
In all xenografts studies, the average tumor volume at treatment initiation was about 150 mm^3 and mean tumor volumes (mm^3)±SEM of each group were graphed over time as indicated in FIG. 4.

[3] = Phase 1 open-label study Part 1: safety and tolerability; format: in vivo, human
Text: (§2) This is a multi-part, Phase 1, open-label, multicenter study to evaluate the safety, pharmacokinetics, pharmacodynamics, and preliminary clinical activity of JNJ-64619178 monotherapy administered either to adult human subjects with advanced solid tumors or B cell non-Hodgkin lymphomas who previously received or are ineligible for standard treatment options, or to adult subjects with lower risk myelodysplastic syndromes (MDS) who are red blood cell (RBC) transfusion-dependent and relapsed or refractory to erythropoiesis-stimulating agent (ESA) treatment.
Fifteen (15) participants with various solid tumors (e.g., breast cancer, prostate cancer, salivary duct carcinoma, adenoid cystic carcinoma) were dosed in the “Part 1” study described below with JNJ-64619178 at 0.5 mg (1′ cohort), 1 mg (2nd cohort), 2 mg (3rd cohort) and 4 mg (4th cohort) under a schedule of 14 days continuous dose administration followed by a 7-day rest period (14 days on/7 days off in a 21-day cycle). Average treatment duration ranged from 4 weeks in the 4th cohort (4 mg 14 days on/7 days off) to 6 months in the 2nd cohort (1 mg 14 days on/7 days off). […] The Part 1 study is ongoing.
(§3) Fifty-four (54) participants with various solid tumors (e.g., breast cancer, prostate cancer, salivary duct carcinoma, adenoid cystic carcinoma, and uveal melanoma) were dosed in the “Part 1” study described below with JNJ-64619178 at 0.5 mg (1st cohort), 1 mg (2nd cohort), 2 mg (3rd cohort), 4 mg (4th cohort), and 3 mg (5th cohort) under a schedule of 14 days continuous dose administration followed by a 7-day rest period (14 days on/7 days off in a 21-day cycle); or at 1 mg (6th cohort) or 2 mg (7th cohort) under a schedule of 21 days continuous dosing. Average treatment duration was 3 months, with a range of 0.4 to 22.4 months. […] The maximum tolerated dose was considered 3 mg on the 14 days on/7 days off schedule or 2 mg on the continuous dosing schedule. […] The participant with confirmed PR was from cohort 2.
The JNJ-64619178 starting dose is based on toxicology results obtained using no observed adverse effect level (NOAEL) dose, more conservative than the highest non-severely toxic dose (HNSTD) in the dog as the most sensitive species. Using a default safety factor of 6 (used for HNSTD in non-rodents), a starting dose of 0.54 mg once daily (QD) was obtained, which was rounded to 0.5 mg QD. A single dose of the study drug will be administered in the pharmacokinetic run-in phase for Part 1. During the treatment phase, the study drug will be administered for 14 consecutive days followed by 7 days of rest (14 days on/7 days off dose administration) on a 21 day cycle. Alternative dosing schedules (e.g., continuous dosing, 7 days on/7 days off, and 7 days on/14 days off) are also evaluated.
The study was initiated with dose Schedule A (14 days on/7 days off dose administration on a 21-day cycle). Table B below provides an example of possible dose escalation.

various solid tumors = test: Phase 1 open-label study Part 1: preliminary clinical activity (RECIST); format: in vivo, human
Text: as §2, §3
(§4) Two provisional RP2Ds were selected: 1.5 mg intermittently and 1 mg QD.

[4] = Phase 1 open-label study Part 1: plasma pharmacokinetics; format: in vivo; settings: human plasma, oral capsules
Experimental: as §4
The pharmacokinetic run-in phase will evaluate the single-dose pharmacokinetics of JNJ 64619178 prior to subsequent daily dose administration in the treatment phase. Subjects will be administered a single-dose of study drug at the site on Day 1 and remain at site for at least 6 hours for pharmacokinetic assessments. The single-dose of study drug will be followed by a 6 day rest period (i.e., Days 2 to 7 [a range of 5 to 10 days is allowed]) during which pharmacokinetic blood sample and ECG collection will be conducted. Certain subjects in Part 1 may not participate in the pharmacokinetic run-in phase.
The treatment phase begins on Cycle 1 Day 1 with the administration of the study drug and continues until the completion of the end-of-treatment visit. During the treatment phase, multiple-dose pharmacokinetics of JNJ-64619178 will be evaluated. On Cycle 1 Day 14, subjects in Part 1 will remain at site for at least 8 hours after the study drug administration for pharmacokinetic and ECG assessments. Study drug should be administered at approximately the same time each day for accurate evaluation of the pharmacokinetics of JNJ 64619178.

plasma SDMA = test: Phase 1 open-label study Part 1: target engagement by plasma SDMA; format: in vivo, human; settings: even with intermittent dosing
Experimental: as §4

Sequence of PRMT5/MEP50 (O14744 whole entry): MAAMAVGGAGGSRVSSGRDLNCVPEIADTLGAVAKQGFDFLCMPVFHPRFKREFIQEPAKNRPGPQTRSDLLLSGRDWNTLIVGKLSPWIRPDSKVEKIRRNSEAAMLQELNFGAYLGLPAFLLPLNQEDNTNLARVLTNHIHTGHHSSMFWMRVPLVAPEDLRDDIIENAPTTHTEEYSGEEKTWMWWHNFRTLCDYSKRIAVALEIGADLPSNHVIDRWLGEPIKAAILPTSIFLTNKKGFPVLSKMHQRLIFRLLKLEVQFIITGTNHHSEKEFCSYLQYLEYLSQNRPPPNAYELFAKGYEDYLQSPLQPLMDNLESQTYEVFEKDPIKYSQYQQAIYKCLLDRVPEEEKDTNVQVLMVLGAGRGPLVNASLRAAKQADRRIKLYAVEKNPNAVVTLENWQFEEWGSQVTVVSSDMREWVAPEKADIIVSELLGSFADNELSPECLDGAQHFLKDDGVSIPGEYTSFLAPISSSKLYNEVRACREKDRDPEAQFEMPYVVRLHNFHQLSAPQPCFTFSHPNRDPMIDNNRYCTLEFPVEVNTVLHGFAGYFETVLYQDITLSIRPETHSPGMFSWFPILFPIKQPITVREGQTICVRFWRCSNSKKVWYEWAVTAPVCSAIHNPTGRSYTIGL
Sequence of PRMT5/MEP50 (Q9BQA1 whole entry partner): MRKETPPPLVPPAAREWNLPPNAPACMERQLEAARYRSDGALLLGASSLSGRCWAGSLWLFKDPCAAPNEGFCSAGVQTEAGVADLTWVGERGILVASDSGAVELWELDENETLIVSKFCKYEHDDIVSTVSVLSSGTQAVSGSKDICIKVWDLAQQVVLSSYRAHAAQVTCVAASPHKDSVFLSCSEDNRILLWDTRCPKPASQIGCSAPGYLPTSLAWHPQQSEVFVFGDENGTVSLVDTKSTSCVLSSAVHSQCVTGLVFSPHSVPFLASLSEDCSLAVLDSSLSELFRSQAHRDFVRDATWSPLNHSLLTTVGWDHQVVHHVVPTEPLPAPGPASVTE
Sequence of PRMT5/MEP50 complex (O14744 whole entry): as the sequence (O14744 whole entry) above
Sequence of PRMT5/MEP50 complex (Q9BQA1 whole entry partner): as the sequence (Q9BQA1 whole entry partner) above

In the case of `Nc1nc2cc(CC[C@H]3C[C@@H](n4ccc5c(N)ncnc54)[C@H](O)[C@@H]3O)ccc2cc1Br` [JNJ-64619178, (1S,2R,3S,5R)-3-(2-(2-amino-3-bromoquinolin-7-yl)ethyl)-5-(4-amino-7H-pyrrolo[2,3-d]pyrimidin-7-yl)cyclopentane-1,2-diol], the binding kinetics (PRMT5/MEP50) is reported as “slow off-rate binding kinetics”, the “additional stabilization of the PRMT5/MEP50 complex in comparison to SAM binding” value (PRMT5/MEP50 complex) is reported as 12 degrees Celsius and the “time complete regression was maintained postdose” value ([1]; 10 mg/kg once daily oral) is reported as “up to 14 days”. For the same compound, the tumor regression ([1]; 10 mg/kg once daily oral) was “complete regression of tumors”, the “tumor growth inhibition (TGI)” value ([1]; 10 mg/kg once daily oral, Day 42 postimplantation, vs vehicle control) was 99.1% and the “start of tumor regrowth after cessation of dosing” value ([1]; 10 mg/kg once daily, all 8 mice) was “approximately 14 days”. For the same compound, the “antitumor activity (statistical significance) compared with vehicle control” value ([1]; 1, 3, and 10 mg/kg once daily oral) was “statistically significant antitumor activity”, the “antitumor activity (biological significance)” value ([1]; 3 and 10 mg/kg once daily oral) was “biologically significant antitumor activity” and the “tumor growth inhibition (TGI)” value [2] was “up to 72.9%”. For the same compound, the “tumor growth inhibition (TGI) compared to vehicle” value (NCI-H1048 xenografts; 28 consecutive days) was 62%, the “tumor growth inhibition (TGI) compared to vehicle” value (NCI-H1048 xenografts; two cycles of 7 days on/7 days off (7+/7-)) was 63% and the maximum tolerated dose ([3]; 14 days on/7 days off schedule) was 3 mg. For the same compound, the maximum tolerated dose ([3]; continuous dosing schedule) was 2 mg, the dose-limiting toxicities ([3]; human, in vivo) was “thrombocytopenia of Grade 4 or of Grade 3 lasting longer than 7 days” and the “grade of non-hematologic toxicities” value ([3]; human, in vivo) was “Grade 1 or 2 except for one case of Grade 3 vomiting lasting 24 hours”. For the same compound, the “adverse events observed in >20% of participants” value ([3]; in vivo) was “gastrointestinal disorders (nausea, vomiting, diarrhea), hematologic disorders (thrombocytopenia, anemia, neutropenia), general disorders (fatigue and asthenia) and dysgeusia”, the “dose limiting toxicities (DLTs)” value ([3]; in vivo) was “No dose limiting toxicities (DLTs) were observed” and the “most frequently reported adverse events” value ([3]; in vivo) was “hematologic, gastrointestinal and dermatologic”. For the same compound, the “best overall response: confirmed partial response” value (various solid tumors; 1 of 45 participants evaluable for efficacy, from cohort 2) was 4.3%, the “best overall response: progressive disease” value (various solid tumors; 20 of 45 participants evaluable for efficacy) was 43% and the “best overall response: stable disease” value (various solid tumors; 24 of 45 participants evaluable for efficacy) was 52%. The “response (RECIST) in ACC” value (various solid tumors; adenoid cystic carcinoma) was “confirmed partial response”, the “duration of stable disease” value (various solid tumors; patients with ACC, prostate cancer, salivary gland carcinomas, and other tumor types) was “greater than 6 months” and the “plasma Cmax and AUC dose dependence” value [4] was “linearly dose-proportional”. The “target engagement as measured by plasma SDMA” value (plasma SDMA) was “Robust target engagement”.
